Measured values from doi:10.1101/571604v1 (biorxiv, 2019).
pEC50: −log10 of the molar value.

Experiments:
[1] = target: T1, FPR2 (PathHunter eXpress CHO-K1 FPR2 cells) (Homo sapiens, UniProt P25090); test: beta-arrestin recruitment, PathHunter enzyme fragment complementation; assay type: cell-based
T1 sequence (P25090 1-351): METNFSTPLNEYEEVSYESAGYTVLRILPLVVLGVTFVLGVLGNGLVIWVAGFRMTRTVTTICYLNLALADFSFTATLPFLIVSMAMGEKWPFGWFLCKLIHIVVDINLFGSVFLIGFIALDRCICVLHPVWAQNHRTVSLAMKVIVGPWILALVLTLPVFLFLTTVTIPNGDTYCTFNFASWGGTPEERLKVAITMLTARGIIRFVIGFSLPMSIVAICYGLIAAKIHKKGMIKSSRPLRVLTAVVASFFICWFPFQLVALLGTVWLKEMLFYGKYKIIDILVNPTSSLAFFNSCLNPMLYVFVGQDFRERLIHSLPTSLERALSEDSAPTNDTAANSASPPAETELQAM

[2] = target: T2, FPR2 (human blood neutrophils) (Homo sapiens, UniProt P25090); test: NADPH-oxidase superoxide release, isoluminol chemiluminescence, peak response; assay type: cell-based; conditions: agonist; naive neutrophils, 37 °C, pH 7.3
T2 sequence (P25090 1-351): T1 sequence (P25090 1-351)

In the case of `Cc1cccc(-c2oc(C)nc2C(=O)Nc2cnn(Cc3nc(C(C)(F)F)co3)n2)c1` [Act-389949, N-(2-{[4-(1,1-difluoroethyl)-1,3-oxazol-2-yl]methyl}-2H-1,2,3-triazol-4-yl)-2-methyl-5-(3-methylphenyl)-1,3-oxazole-4-carboxamide], the pEC50 [1] was roughly 7.70 and the pEC50 [2] was roughly 8.00.
